What was measured:
Type in all cases: functional, organism-based
Rattus norvegicus [1] = experiment: Carcinogenic activity on other sites after subcutaneous administration
Rattus norvegicus [2] = experiment: Carcinogenic activity on all sites after subcutaneous administration
Rattus norvegicus [3] = experiment: Carcinogenic activity on breast after oral administration
Rattus norvegicus [4] = experiment: Carcinogenic activity on other sites after oral administration
Rattus norvegicus [5] = experiment: Carcinogenic activity on all sites after oral administration
Rattus norvegicus [6] = experiment: Carcinogenic activity on mixed data after oral administration
Rattus norvegicus [7] = experiment: Carcinogenic activity on liver after oral administration
Rattus norvegicus [8] = experiment: Carcinogenic activity on ear duct after oral administration
Rattus norvegicus [9] = experiment: Carcinogenic activity on breast after oral administration of the compound

Measured: Activity

CC(=O)ON(C(C)=O)c1cccc2ccc3ccccc3c12
Carcinogenic activity: Rattus norvegicus [1] | Rattus norvegicus [2]

Cc1ccc(C)c(-c2ccc(N)cc2C)c1
Carcinogenic activity: Rattus norvegicus [1] | Rattus norvegicus [2]

[O-][n+]1ccc(NO)c2ccccc21
Carcinogenic activity: Rattus norvegicus [3] | Rattus norvegicus [4] | Rattus norvegicus [5]

Cc1ccc(/N=N/c2cc(C)ccc2N)cc1
Carcinogenic activity: Rattus norvegicus [3]

CC(=O)Nc1ccc2c(ccc3ccccc32)c1
not listed: Rattus norvegicus [1] | Rattus norvegicus [2] | Rattus norvegicus [9]
Carcinogenic activity: all other assays above

CN(C)c1ccc2c(c1)Cc1ccccc1-2
not listed: Rattus norvegicus [1] | Rattus norvegicus [2] | Rattus norvegicus [3]
Carcinogenic activity: all other assays above

Cc1cc(-c2ccccc2C)ccc1N
Carcinogenic activity: Rattus norvegicus [3] | Rattus norvegicus [6] | Rattus norvegicus [4] | Rattus norvegicus [5] | Rattus norvegicus [8]

CC(=O)ON(C(C)=O)c1ccc(-c2ccccc2)cc1
Carcinogenic activity: Rattus norvegicus [1] | Rattus norvegicus [2]

CC(=O)N(O)c1ccc2c(c1)Cc1cc(F)ccc1-2
not listed: Rattus norvegicus [1] | Rattus norvegicus [2] | Rattus norvegicus [3]
Carcinogenic activity: all other assays above

CC(=O)Nc1ccc2c(c1)Cc1ccc(F)cc1-2
not listed: Rattus norvegicus [1] | Rattus norvegicus [2] | Rattus norvegicus [3]
Carcinogenic activity: all other assays above

CC(=O)N(C(C)=O)c1ccc2c(c1)Cc1ccccc1-2
not listed: Rattus norvegicus [1] | Rattus norvegicus [2] | Rattus norvegicus [3]
Carcinogenic activity: all other assays above

CNc1ccc2c(c1)Cc1ccccc1-2
not listed: Rattus norvegicus [1] | Rattus norvegicus [2] | Rattus norvegicus [3]
Carcinogenic activity: all other assays above

CC(=O)Nc1ccc2c(c1)Cc1cc(NC(C)=O)ccc1-2
not listed: Rattus norvegicus [1] | Rattus norvegicus [2] | Rattus norvegicus [3]
Carcinogenic activity: all other assays above

Nc1ccc(/C=C/c2ccc(N)c(Cl)c2)cc1Cl
Carcinogenic activity: Rattus norvegicus [1] | Rattus norvegicus [2]

O=CNNc1nc(-c2ccc([N+](=O)[O-])o2)cs1
Carcinogenic activity: Rattus norvegicus [3] | Rattus norvegicus [4] | Rattus norvegicus [5]

CC(=O)ON(C(C)=O)c1ccc2c(c1)Cc1ccccc1-2
Carcinogenic activity: Rattus norvegicus [1] | Rattus norvegicus [2]

Nc1ccc(/C=C/c2ccccc2)cc1
Carcinogenic activity: Rattus norvegicus [3] | Rattus norvegicus [5] | Rattus norvegicus [8]

Cc1cc(/C=C/c2ccccc2)ccc1N
Carcinogenic activity: Rattus norvegicus [1] | Rattus norvegicus [2]

NNc1nc(-c2ccc([N+](=O)[O-])o2)cs1
Carcinogenic activity: Rattus norvegicus [3] | Rattus norvegicus [5]

NNc1nc(-c2ccc([N+](=O)[O-])cc2)cs1
Carcinogenic activity: Rattus norvegicus [3] | Rattus norvegicus [5]

CC(=O)N(OC(=O)c1ccccc1)c1ccc2c(c1)Cc1ccccc1-2
Carcinogenic activity: Rattus norvegicus [1] | Rattus norvegicus [2]

Nc1ccc2c(ccc3ccccc32)c1
Carcinogenic activity: Rattus norvegicus [3] | Rattus norvegicus [5]

Cc1cc(N)ccc1/C=C/c1ccccc1
Carcinogenic activity: Rattus norvegicus [1] | Rattus norvegicus [2]

Nc1cccc2c1ccc1ccccc12
Carcinogenic activity: Rattus norvegicus [3] | Rattus norvegicus [5]

N/C(=N\O)c1ccc([N+](=O)[O-])o1
Carcinogenic activity: Rattus norvegicus [3] | Rattus norvegicus [6] | Rattus norvegicus [5]

Cc1cc(Cc2ccc(N)c(C)c2)ccc1N
Carcinogenic activity: Rattus norvegicus [6] | Rattus norvegicus [7] | Rattus norvegicus [4] | Rattus norvegicus [5] | Rattus norvegicus [9]

CN(C)c1ccc(/C=C/c2ccccc2F)cc1
Carcinogenic activity: Rattus norvegicus [6] | Rattus norvegicus [7] | Rattus norvegicus [5] | Rattus norvegicus [9] | Rattus norvegicus [8]

CC(=O)Nc1ccc2c(c1)Cc1cc(F)ccc1-2
Carcinogenic activity: Rattus norvegicus [6] | Rattus norvegicus [7] | Rattus norvegicus [5] | Rattus norvegicus [9] | Rattus norvegicus [8]

Nc1ccc(-c2ccccc2)cc1
Carcinogenic activity: Rattus norvegicus [3] | Rattus norvegicus [5]

Cc1cc(C)c(-c2ccc(N)cc2C)c(C)c1
Carcinogenic activity: Rattus norvegicus [1] | Rattus norvegicus [2]

COc1cc(N)ccc1-c1ccccc1
Carcinogenic activity: Rattus norvegicus [1] | Rattus norvegicus [2]

— ChEMBL document CHEMBL1121791, “Computer-assisted structure-activity studies of chemical carcinogens. Aromatic amines” (J Med Chem, 1981)
